Patent publication US6544989B2, “Benzazoles: benzoxazole, benzthiazole and benzimidazole derivatives” (Syngenta Limited, priority 1998, dated 2003)
Where two headings read alike, the source gives them in different places. Marks after values point to notes of the source that are not given here.

Assays:
Plasmopara viticola [1] = assay: Synergy test of two-compound mixtures, Plasmopara viticola (PLASVI) on vines, observed and expected PRCO; assay type: in vivo; conditions: Disease on untreated: 95%
Septoria nodorum [2] = assay: Synergy test of two-compound mixtures, Septoria nodorum (LEPTNO) on wheat, observed and expected PRCO; assay type: in vivo
Rhizoctonia solani [3] = assay: Synergy test of two-compound mixtures, Rhizoctonia solani (RHIZSO) on turf, observed and expected PRCO; assay type: in vivo; conditions: assessed 5 days after treatment
Plasmopara viticola [4] = assay: Fungicidal test, Plasmopara viticola (PLASVI) on vines, PRCO; assay type: in vivo
Uncinula necator = assay: Fungicidal test, Uncinula necator (UNCINE) on vines, PRCO; assay type: in vivo; conditions: METHOD 2 (unbanded)
[5] = test system: Phytophthora infestans lycopersici; assay type: in vivo
Botrytis cinerea = assay: Fungicidal test, Botrytis cinerea (BOTRCI) on tomatoes, PRCO; assay type: in vivo; conditions: METHOD 2 (unbanded)
Venturia inaequalis = assay: Fungicidal test, Venturia inaequalis (VENTIN) on apples, PRCO; assay type: in vivo; conditions: METHOD 2 (unbanded)
[6] = test system: Erysiphe graminis f.sp. tritici; assay: Fungicidal test, Erysiphe graminis f.sp. tritici (ERYSGT) on wheat, PRCO; assay type: in vivo; conditions: 6 hr Prot/Foir; METHOD 1 (values marked *)
Septoria nodorum [7] = assay: Fungicidal test, Septoria nodorum (LEPTNO) on wheat, PRCO; assay type: in vivo; conditions: METHOD 2 (unbanded)
Puccinia recondita = assay: Fungicidal test, Puccinia recondita (PUCCRT) on wheat, PRCO; assay type: in vivo; conditions: METHOD 2 (unbanded)
Pyricularia oryzae = assay type: in vivo; conditions: METHOD 2 (unbanded)
Rhizoctonia solani [8] = assay: Fungicidal test, Rhizoctonia solani (RHIZSO) on rice, PRCO; assay type: in vivo; conditions: METHOD 2 (unbanded)
Musca domestica = conditions: 500 ppm by weight; knockdown assessed 15 minutes after treatment
Meloidogyne incognita = assay: Nematode test, J2 infective juveniles of Meloidogyne incognita, mortality; conditions: 12.5 ppm; J2 infective juveniles suspended in solution; mortality after three days

With `CSC1=N[C@@](C)(c2ccccc2)C(=O)N1Nc1ccccc1` [fenamidone] the “% disease control Observed” value (Plasmopara viticola [1]; fenamidone 0.2 mg/l alone) was 65%.
In the case of `CO/C=C(/C(=O)OC)c1ccccc1Oc1cc(Oc2ccccc2C#N)ncn1` [azoxystrobin, reference compound], the “% disease control Observed” value (Plasmopara viticola [1]; azoxystrobin 0.2 mg/l alone) is reported as 61%, the “% disease control Observed” value (Septoria nodorum [2]; Test 1 (Disease on untreated: 52%), azoxystrobin 0.1 mg/l alone) is reported as 41% and the “% disease control Observed” value (Septoria nodorum [2]; Test 1 (Disease on untreated: 52%), azoxystrobin 0.25 mg/l alone) is reported as 37%. The “% disease control Observed” value (Septoria nodorum [2]; Test 2 (Disease on untreated: 64%), azoxystrobin 0.1 mg/l alone) was 48%, the “% disease control Observed” value (Septoria nodorum [2]; Test 2 (Disease on untreated: 64%), azoxystrobin 0.25 mg/l alone) was 71% and the “% disease control Observed” value (Rhizoctonia solani [3]; Test 1, azoxystrobin 0.1 mg/l alone) was 38.25%. The “% disease control Observed” value (Rhizoctonia solani [3]; Test 1, azoxystrobin 0.3 mg/l alone) was 71.25% and the “% disease control Observed” value (Rhizoctonia solani [3]; Test 2, azoxystrobin 0.1 mg/l alone) was 19.7%.
For `O=[N+]([O-])c1cc(C(F)(F)F)c(Cl)c([N+](=O)[O-])c1Nc1ncc(C(F)(F)F)cc1Cl` [fluazinam], the “% disease control Observed” value (Plasmopara viticola [1]; fluazinam 1 mg/l alone) was 4%, the “% disease control Observed” value (Rhizoctonia solani [3]; Test 1, fluazinam 3 mg/l alone) was 15% and the “% disease control Observed” value (Rhizoctonia solani [3]; Test 1, fluazinam 10 mg/l alone) was 48.75%. For the same compound, the “% disease control Observed” value (Rhizoctonia solani [3]; Test 2, fluazinam 10 mg/l alone) was 18.4%.
`Cc1nsc(NC(=O)Cc2ccc3oc(CC(C)(C)C)nc3c2)c1Cl` [Compound 15(A3)] was tested, and the “PLASVI 1 d Prot/Foir PRCO” value (Plasmopara viticola [4]; METHOD 2 (unbanded)) was 100, the “UNCINE 1 d Prot/Foir PRCO” value (Uncinula necator) was 100 and the “PHYTIN 1 d Prot/Foir PRCO” value ([5]; METHOD 1 (values marked *)) was 100*. The “BOTRCI 1 d Prot/Foir PRCO” value (Botrytis cinerea) was 73, the “VENTIN 1 d Prot/Foir PRCO” value (Venturia inaequalis) was 100 and the “ERYSGT 6 hr Prot/Foir PRCO” value [6] was 100*. For the same compound, the “LEPTNO 1 d Prot/Foir PRCO” value (Septoria nodorum [7]) was 71, the “PUCCRT 1 d Prot/Foir PRCO” value (Puccinia recondita) was 100 and the “PYRIOR 1 d Prot/Foir PRCO” value (Pyricularia oryzae) was 100. The “RHIZSO 1 d Prot/Foir PRCO” value (Rhizoctonia solani [8]) was 5, the “% disease control Observed” value (Plasmopara viticola [1]; Compound 15(A3) 0.2 mg/l alone) was 45% and the “% disease control Observed” value (Septoria nodorum [2]; Test 1 (Disease on untreated: 52%), Compound 15(A3) 50 mg/l alone) was 16%. The “% disease control Observed” value (Septoria nodorum [2]; Test 1 (Disease on untreated: 52%), Compound 15(A3) 100 mg/l alone) was 27%, the “% disease control Observed” value (Septoria nodorum [2]; Test 2 (Disease on untreated: 64%), Compound 15(A3) 50 mg/l alone) was 21% and the “% disease control Observed” value (Septoria nodorum [2]; Test 2 (Disease on untreated: 64%), Compound 15(A3) 100 mg/l alone) was 21%. For the same compound, the “% disease control Observed” value (Rhizoctonia solani [3]; Test 1, Disease on untreated 100%, Compound 15(A3) 300 mg/l alone) was 2.5%, the “% disease control Observed” value (Rhizoctonia solani [3]; Test 2, Disease on untreated 100%, Compound 15(A3) 300 mg/l alone) was 6.1% and the “MUSCDO AC = Musca domestica (knockdown), score” value (Musca domestica) was 9 (9 indicates 80-100% mortality). The “MELGIN = Meloidogyne incognita, grading of mortality (score)” value (Meloidogyne incognita) was 0 (0 indicates less than 40% mortality).
In the case of `Cc1nsc(NC(=O)Cc2ccc3oc(C(C)(C)C)nc3c2)c1Cl` [9(A3)], the “PLASVI 1 d Prot/Foir PRCO” value (Plasmopara viticola [4]; METHOD 1 (values marked *)) is reported as 100*, the “UNCINE 1 d Prot/Foir PRCO” value (Uncinula necator) is reported as 100 and the “PHYTIN 1 d Prot/Foir PRCO” value ([5]; METHOD 2 (unbanded)) is reported as 100. The “BOTRCI 1 d Prot/Foir PRCO” value (Botrytis cinerea) was 3, the “VENTIN 1 d Prot/Foir PRCO” value (Venturia inaequalis) was 33 and the “ERYSGT 6 hr Prot/Foir PRCO” value [6] was 100*. For the same compound, the “LEPTNO 1 d Prot/Foir PRCO” value (Septoria nodorum [7]) was 55, the “PUCCRT 1 d Prot/Foir PRCO” value (Puccinia recondita) was 100 and the “PYRIOR 1 d Prot/Foir PRCO” value (Pyricularia oryzae) was 100. For the same compound, the “RHIZSO 1 d Prot/Foir PRCO” value (Rhizoctonia solani [8]) was 29, the “MUSCDO AC = Musca domestica (knockdown), score” value (Musca domestica) was 9 (9 indicates 80-100% mortality) and the “MELGIN = Meloidogyne incognita, grading of mortality (score)” value (Meloidogyne incognita) was 0 (0 indicates less than 40% mortality).
